Structures can show the parent of a compound that is named as a salt.

The values below come from patent publication US10654848B1, “Neutrophil inflammation inhibitor and uses thereof” (Chang Gung University of Science and Technology, priority 2018, dated 2020).

Test system in the first data set: not given
Test: not given
Details: not given
As a reminder, the melting point is the temperature, or range, at which the solid turns liquid. In turn, `Cn1nc(N)c2c(Nc3ccc(F)cc3)nc3ccccc3c21` (as salt: salt) [Compound 4, 4-(4-Fluoroanilino)-1-methyl-1H-pyrazolo[4,3-c]quinolin-3-amine] displayed a melting point of 218 to 219 °C.
`CC(=O)c1ccc(Nc2nc3ccccc3c3onc(N)c23)cc1` (as salt: salt) [Compound 27, 4-(4-Acetoylanilino)isoxazolo[4,5-c]quinolin-3-amine] displayed a melting point of 255 to 257 °C.
Regarding `Cn1nc(N)c2c(Nc3cccc(O)c3)nc3ccccc3c21` (as salt: salt) [Compound 12, 4-(3-Hydroxyanilino)-1-methyl-1H-pyrazolo[4,3-c]quinolin-3-amine], the melting point lay within 190 to 191 °C.
The compound `Cn1nc(N)c2c(Nc3ccccc3O)nc3ccccc3c21` (as salt: salt) [Compound 11, 4-(2-Hydroxyanilino)-1-methyl-1H-pyrazolo[4,3-c]quinolin-3-amine] yielded a melting point of 233 to 235 °C.
The same measure, in the same setting: with `Cn1nc(N)c2c(Nc3ccc(C(=O)O)cc3)nc3ccccc3c21` (as salt: salt) [Compound 15, 4-[(3-Amino-1-methyl-1H-pyrazolo[4,3-c]quinolin-4-yl)amino]benzoic acid] the figure was 325 to 326 °C; with `CC(=O)c1ccc(Nc2nc3ccccc3c3c2c(N)nn3C)cc1` [Compound 10, 4-(4-Acetoylanilino)-1-methyl-1H-pyrazolo[4,3-c]quinolin-3-amine], 272 to 274 °C.
For `Nc1noc2c1c(Nc1ccc(O)cc1)nc1ccccc12` (as salt: salt) [Compound 29, 4-(4-Hydroxyanilino)isoxazolo[4,5-c]quinolin-3-amine], the melting point lay within 236 to 237 °C.
On the same count and under the same terms, under `Nc1noc2c1c(Nc1ccccc1)nc1ccccc12` (as salt: salt) [Compound 19, 4-Anilinoisoxazolo[4,5-c]quinolin-3-amine] stands 266 to 267 °C; under `COc1cccc(Nc2nc3ccccc3c3c2c(N)nn3C)c1` (as salt: salt) [Compound 6, 4-(3-Methoxyanilino)-1-methyl-1H-pyrazolo[4,3-c]quinolin-3-amine], 284 to 286 °C.
For `Nc1noc2c1c(Nc1ccc(F)cc1)nc1ccccc12` (as salt: salt) [Compound 20, 4-(4-Fluoroanilino)isoxazolo[4,5-c]quinolin-3-amine], the melting point fell in the range of 271 to 272 °C.
Same read-out and setting: with `CC(=O)c1cccc(Nc2nc3ccccc3c3onc(N)c23)c1` (as salt: salt) [Compound 26, 4-(3-Acetoylanilino)isoxazolo[4,5-c]quinolin-3-amine] the figure was 249 to 250 °C; with `COc1cccc(Nc2nc3ccccc3c3onc(N)c23)c1` (as salt: salt) [Compound 22, 4-(3-Methoxyanilino)isoxazolo[4,5-c]quinolin-3-amine], 262 to 263 °C; with `Cc1ccc(Nc2nc3ccccc3c3onc(N)c23)cc1` (as salt: salt) [Compound 33, 4-(4-Methylanilino)isoxazolo[4,5-c]quinolin-3-amine], 173 to 175 °C.
In the case of `Cn1nc(N)c2c(Nc3ccccc3S)nc3ccccc3c21` (as salt: salt) [Compound 16, 2-[(3-amino-1-methyl-1H-pyrazolo[4,3-c]quinolin-4-yl)amino]benzenethiol], the melting point was 235 to 236 °C.
Compound `Nc1noc2c1c(Nc1ccc(Cl)cc1)nc1ccccc12` (as salt: salt) [Compound 32, 4-(4-Chloroanilino)isoxazolo[4,5-c]quinolin-3-amine] came in with a melting point of 268 to 269 °C.
In turn, `COc1ccc(Nc2nc3ccccc3c3onc(N)c23)cc1` (as salt: salt) [Compound 23, 4-(4-Methoxyanilino)isoxazolo[4,5-c]quinolin-3-amine] gave a melting point of 257 to 259 °C.
With `COc1ccc(Nc2nc3ccccc3c3c2c(N)nn3C)cc1` (as salt: salt) [Compound 7, 4-(4-Methoxyanilino)-1-methyl-1H-pyrazolo[4,3-c]quinolin-3-amine], the melting point lay in the range of 193 to 194 °C.
Same read-out and setting: under `Nc1noc2c1c(Nc1ccc(C(=O)O)cc1)nc1ccccc12` (as salt: salt) [Compound 31, 4-[(3-aminoisoxazolo[4,5-c]quinolin-4-yl)amino]benzoic acid] stands 308 to 310 °C; under `COc1ccccc1Nc1nc2ccccc2c2c1c(N)nn2C` [Compound 5, 4-(2-Methoxyanilino)-1-methyl-1H-pyrazolo[4,3-c]quinolin-3-amine], 229 to 230 °C.
`Nc1noc2c1c(Nc1ccc(C(F)(F)F)cc1)nc1ccccc12` (as salt: salt) [Compound 30, 4-(4-Trifluoromethylanilino)isoxazolo[4,5-c]quinolin-3-amine]: the melting point fell in the range of 227 to 229 °C.
The same measure, in the same setting: under `COc1ccccc1Nc1nc2ccccc2c2onc(N)c12` (as salt: salt) [Compound 21, 4-(2-Methoxyanilino)isoxazolo[4,5-c]quinolin-3-amine] stands 261 to 262 °C.
Still for that read-out and setting: under `Cn1nc(N)c2c(Nc3ccc(Cl)cc3)nc3ccccc3c21` (as salt: salt) [Compound 17, 4-(4-Chloroanilino)-1-methyl-1H-pyrazolo[4,3-c]quinolin-3-amine] stands 281 to 282 °C; under `COc1cc(Nc2nc3ccccc3c3c2c(N)nn3C)cc(OC)c1OC` (as salt: salt) [Compound 8, 4-(3,4,5-Trimethoxyanilino)-1-methyl-1H-pyrazolo[4,3-c]quinolin-3-amine], 219 to 220 °C; under `Cn1nc(N)c2c(Nc3ccc(C(F)(F)F)cc3)nc3ccccc3c21` (as salt: salt) [Compound 14, 4-(4-Trifluoromethylanilino)-1-methyl-1H-pyrazolo[4,3-c]quinolin-3-amine], 219 to 220 °C.
`Nc1noc2c1c(Nc1ccccc1O)nc1ccccc12` (as salt: salt) [Compound 28, 4-(2-Hydroxyanilino)isoxazolo[4,5-c]quinolin-3-amine] came in with a melting point of 240 to 241 °C.
Same read-out and setting: with `COc1cc(Nc2nc3ccccc3c3onc(N)c23)cc(OC)c1OC` (as salt: salt) [Compound 24, 4-(3,4,5-Trimethoxyanilino)isoxazolo[4,5-c]quinolin-3-amine] the figure was 264 to 266 °C; with `Cn1nc(N)c2c(Nc3ccc(O)cc3)nc3ccccc3c21` (as salt: salt) [Compound 13, 4-(4-Hydroxyanilino)-1-methyl-1H-pyrazolo[4,3-c]quinolin-3-amine], 320 to 322 °C.
Still for that read-out and setting: under `Cc1ccc(Nc2nc3ccccc3c3c2c(N)nn3C)cc1` (as salt: salt) [Compound 18, 4-(4-Methylanilino)-1-methyl-1H-pyrazolo[4,3-c]quinolin-3-amine] stands 253 to 255 °C; under `CSc1ccc(Nc2nc3ccccc3c3c2c(N)nn3C)cc1` (as salt: salt) [Compound 9, 1-Methyl-4-(4-methylthioanilino)-1H-pyrazolo[4,3-c]quinolin-3-amine], 233 to 235 °C.
In turn, `CSc1ccc(Nc2nc3ccccc3c3onc(N)c23)cc1` (as salt: salt) [Compound 25, 4-(4-Methylthioanilino)isoxazolo[4,5-c]quinolin-3-amine] showed a melting point of 246 to 247 °C.

In the next data set the test system is human neutrophils. Description: Superoxide anion (O2•−) generation in fMLF/CB-activated human neutrophils (SOD-inhibitable ferricytochrome c reduction). The format is cell-based. As to conditions: at 10 μM concentration; FMLP/CB-induced human neutrophils; mean ± S.E.M. (n = 3-5). The method, then:
Human neutrophils were obtained in lipopolysaccharide-free conditions by means of dextran sedimentation and Ficoll centrifugation.
O2^•− production was determined based on the SOD-inhibitable reduction of ferricytochrome c. Briefly, neutrophils (6×10^5/mL) were treated with a candidate compound at 37° C. at various concentrations (0.001 to 10 μM) for 5 min after being supplementing with 0.5 mg/mL ferricytochrome c and 1 mM Ca^2+. Cells were then activated with fMLF (0.1 μM) for 10 min in the pre-process of cytochalasin B (CB, 1 μg/mL) for 3 min. Changes in absorbance with the reduction of ferricytochrome c at 550 nm were continuously monitored in a double-beam, six-cell positioner spectrophotometer with constant stirring (Hitachi U-3010, Tokyo, Japan). Calculations were based on the differences in the reactions with and without SOD (100 U ml^−1) divided by the extinction coefficient for the reduction of ferricytochrome c (E=21.1 mM^−1/10 mm).
For the compound `Cc1ccc(Nc2nc3ccccc3c3onc(N)c23)cc1` [Compound 33, 4-(4-Methylanilino)isoxazolo[4,5-c]quinolin-3-amine], the “Superoxide Anion Inhibition %” value is listed as “enhanced”.
For the compound `Nc1noc2c1c(Nc1ccc(C(F)(F)F)cc1)nc1ccccc12` [Compound 30, 4-(4-Trifluoromethylanilino)isoxazolo[4,5-c]quinolin-3-amine], the “Superoxide Anion Inhibition %” value is reported as “enhanced”.
The same measure, in the same setting: with `CSc1ccc(Nc2nc3ccccc3c3onc(N)c23)cc1` [Compound 25, 4-(4-Methylthioanilino)isoxazolo[4,5-c]quinolin-3-amine] the entry was “enhanced”.
